A value given as a limit tells only on which side of the number the result lay.

The assay concerns IL-2 production. In words: Inhibition of IL-2 production in PHA-activated Jurkat cells (ELISA). The following applies: Homo sapiens, PHA 2.5 μg/mL, 20 hours, IL-2 ELISA. Format: cell-based. How it is done:
Jurkat cells were placed in a 96 well plate (0.5 million cells per well in 1% FBS medium) then a test compound of this invention was added at different concentrations. After 10 minutes, the cells were activated with PHA (final concentration 2.5 μg/mL) and incubated for 20 hours at 37° C. under CO2. The final volume was 200 μL. Following incubation, the cells were centrifuged and the supernatants collected and stored at −70° C. prior to assaying for IL-2 production. A commercial ELISA kit (IL-2 Eli-pair, Diaclone Research, Besancon, France) was used to detect production of IL-2, from which dose response curves were obtained. The IC50 value was calculated as the concentration at which 50% of maximum IL-2 production after stimulation was inhibited versus a non-stimulation control.
With `C/C(C(=O)O)=C1/CCCc2cc(NC(=O)c3c(F)cccc3F)ccc21` [Compound 1, 2-[6-(2,6-Difluoro-benzoylamino)-3,4-dihydro-2H-naphthalen-1-ylidene]-propionic acid], the IC50 (usually the concentration needed to halve the response being measured) is > 1000 nM.
As to `COC(=O)/C(C)=C1\CCCc2cc(NC(=O)c3c(F)cccc3F)ccc21` [Compound 2, 2-[6-(2,6-Difluoro-benzoylamino)-3,4-dihydro-2H-naphthalen-1-ylidene]-propionic acid methyl ester], the half-inhibitory concentration (IC50) is > 1000 nM.
In turn, `C/C(C(=O)N1CCOCC1)=C1/CCCc2cc(NC(=O)c3c(F)cccc3F)ccc21` [Compound 3, 2,6-Difluoro-N-[5-(1-methyl-2-morpholin-4-yl-2-oxo-ethylidene)-5,6,7,8-tetrahydro-naphthalen-2-yl]-benzamide] returned an IC50 of 18 nM.
For the compound `C/C(CO)=C1/CCCc2cc(NC(=O)c3c(F)cccc3F)ccc21` [Compound 5, 2,6-Difluoro-N-[5-(2-hydroxy-1-methyl-ethylidene)-5,6,7,8-tetrahydro-naphthalen-2-yl]-benzamide], the IC50 is > 1000 nM.
Compound `O=C(Nc1ccc2c(c1)CCCC=C2c1ccccc1)c1c(F)cccc1F` [Compound 6, 2,6-Difluoro-N-(5-phenyl-8,9-dihydro-7H-benzocyclohepten-2-yl)-benzamide] showed an IC50 of 168 nM.
Take `CC1=C(c2ccccc2)c2ccc(NC(=O)c3c(F)cccc3F)cc2CCC1` [Compound 7, 2,6-Difluoro-N-(5-phenyl-6-methyl-8,9-dihydro-7H-benzocyclohepten-2-yl)-benzamide]: the concentration for half-maximal inhibition (IC50) worked out at 392 nM.
Compound `Nc1ccc(C2=CCCCc3cc(NC(=O)c4c(F)cccc4F)ccc32)cc1` [Compound 8, 2,6-Difluoro-N-[5-(4-amino-phenyl)-8,9-dihydro-7H-benzocyclohepten-2-yl]-benzamide] yielded an IC50 of 146 nM. Against the preceding compound, the IC50 is about 2.7-fold lower.
In turn, `CC(=O)Nc1ccc(C2=CCCCc3cc(NC(=O)c4c(F)cccc4F)ccc32)cc1` [Compound 9, 2,6-Difluoro-N-[5-(4-acetylamino-phenyl)-8,9-dihydro-7H-benzocyclohepten-2-yl]-benzamide] yielded an IC50 of 560 nM. Compared with the last compound, the IC50 is about 3.8-fold higher.

(Values after patent publication US8809396B2, “Substituted fused-ring compounds for inflammation and immune-related uses” (Synta Pharmaceuticals Corp., priority 2007, dated 2014).)
